Results as given in patent US8618103B2 (priority 2009, dated 2013).

Row | melting point | Structure (SMILES)
1 | 221 to 224 °C | COC(=O)N1CC[C@@H](Nc2ncccc2-c2cnc3[nH]ccc3n2)C1 [Example I-4, (R)-3-[3-(5H-Pyrrolo[2,3-b]pyrazin-2-yl)-pyridin-2-ylamino]-pyrrolidine-1-carboxylic acid methyl ester]
2 | 224 to 226 °C | CS(=O)(=O)N1CC[C@@H](Nc2ncccc2-c2cnc3[nH]ccc3n2)C1 [Example I-5, ((R)-1-Methanesulfonyl-pyrrolidin-3-yl)-[3-(5H-pyrrolo[2,3-b]pyrazin-2-yl)-pyridin-2-yl]-amine]
3 | 222 to 225 °C | COC(=O)N1CC[C@H](Nc2ncccc2-c2cnc3[nH]ccc3n2)C1 [Example I-10, (S)-3-[3-(5H-Pyrrolo[2,3-b]pyrazin-2-yl)-pyridin-2-ylamino]-pyrrolidine-1-carboxylic acid methyl ester]
4 | 222 to 224 °C | CS(=O)(=O)N1CC[C@H](Nc2ncccc2-c2cnc3[nH]ccc3n2)C1 [Example I-11, ((S)-1-Methanesulfonyl-pyrrolidin-3-yl)-[3-(5H-pyrrolo[2,3-b]pyrazin-2-yl)-pyridin-2-yl]-amine]
5 | 100 to 110 °C | CC(=O)N1CCCCC(Nc2ncccc2-c2cnc3[nH]ccc3n2)C1 (stereo not shown) [Example I-12, 1-{3-[3-(5H-Pyrrolo[2,3-b]pyrazin-2-yl)-pyridin-2-ylamino]-azepan-1-yl}-ethanone]
6 | 90 to 100 °C | COC(=O)N1CCCCC(Nc2ncccc2-c2cnc3[nH]ccc3n2)C1 (stereo not shown) [Example I-13, 3-[3-(5H-Pyrrolo[2,3-b]pyrazin-2-yl)-pyridin-2-ylamino]-azepane-1-carboxylic acid methyl ester]
7 | 213 to 216 °C | CS(=O)(=O)N1CCCCC(Nc2ncccc2-c2cnc3[nH]ccc3n2)C1 (stereo not shown) [Example I-14, (1-Methane-sulfonyl-azepan-3-yl)-[3-(5H-pyrrolo[2,3-b]pyrazin-2-yl)-pyridin-2-yl]-amine]
8 | 230 to 232 °C | CCS(=O)(=O)N1CC[C@@H](Nc2ncccc2-c2cnc3[nH]ccc3n2)C1 [Example I-16, ((R)-1-Ethanesulfonyl-pyrrolidin-3-yl)-[3-(5H-pyrrolo[2,3-b]pyrazin-2-yl)-pyridin-2-yl]-amine]
9 | 198 to 200 °C | CCCS(=O)(=O)N1CC[C@@H](Nc2ncccc2-c2cnc3[nH]ccc3n2)C1 [Example I-17, [(R)-1-(Propane-1-sulfonyl)-pyrrolidin-3-yl]-[3-(5H-pyrrolo[2,3-b]pyrazin-2-yl)-pyridin-2-yl]-amine]
10 | 187 to 189 °C | CC(C)S(=O)(=O)N1CC[C@@H](Nc2ncccc2-c2cnc3[nH]ccc3n2)C1 [Example I-18, [(R)-1-(Propane-2-sulfonyl)-pyrrolidin-3-yl]-[3-(5H-pyrrolo[2,3-b]pyrazin-2-yl)-pyridin-2-yl]-amine]
11 | 134 to 137 °C | CC(C)CS(=O)(=O)N1CC[C@@H](Nc2ncccc2-c2cnc3[nH]ccc3n2)C1 [Example I-19, [(R)-1-(2-Methyl-propane-1-sulfonyl)-pyrrolidin-3-yl]-[3-(5H-pyrrolo[2,3-b]pyrazin-2-yl)-pyridin-2-yl]-amine]
12 | 105 to 110 °C | CCC(=O)N1CC[C@@H](Nc2ncccc2-c2cnc3[nH]ccc3n2)C1 [Example I-20, 1-{(R)-3-[3-(5H-Pyrrolo[2,3-b]pyrazin-2-yl)-pyridin-2-ylamino]-pyrrolidin-1-yl}-propan-1-one]
13 | 115 to 120 °C | CCCC(=O)N1CC[C@@H](Nc2ncccc2-c2cnc3[nH]ccc3n2)C1 [Example I-21, 1-{(R)-3-[3-(5H-Pyrrolo[2,3-b]pyrazin-2-yl)-pyridin-2-ylamino]-pyrrolidin-1-yl}-butan-1-one]
14 | 178 to 180 °C | CCCS(=O)(=O)N1C[C@@H](C)C[C@H](Nc2ncccc2-c2cnc3[nH]ccc3n2)C1 [Example I-25, [(3S,5S)-5-Methyl-1-(propane-1-sulfonyl)-piperidin-3-yl]-[3-(5H-pyrrolo[2,3-b]pyrazin-2-yl)-pyridin-2-yl]-amine]
15 | 160 to 162 °C | CC(C)CCS(=O)(=O)N1CC[C@@H](Nc2ncccc2-c2cnc3[nH]ccc3n2)C1 [Example I-27, [(R)-1-(3-Methyl-butane-1-sulfonyl)-pyrrolidin-3-yl]-[3-(5H-pyrrolo[2,3-b]pyrazin-2-yl)-pyridin-2-yl]-amine]
16 | 253 to 255 °C | Cc1ccc(-c2cnc3[nH]ccc3n2)c(NC2CCCN(S(C)(=O)=O)C2)n1 (stereo not shown) [Example I-31, (1-Methane-sulfonyl-piperidin-3-yl)-[6-methyl-3-(5H-pyrrolo[2,3-b]pyrazin-2-yl)-pyridin-2-yl]-amine]
17 | 207 to 209 °C | FC(F)(F)CN1CCC[C@H](Nc2ncccc2-c2cnc3[nH]ccc3n2)C1 [Example I-33, [3-(5H-Pyrrolo[2,3-b]pyrazin-2-yl)-pyridin-2-yl]-[(S)-1-(2,2,2-trifluoro-ethyl)-piperidin-3-yl]-amine]
18 | 204 to 207 °C | CCS(=O)(=O)N1CCCC(Nc2nc(C)ccc2-c2cnc3[nH]ccc3n2)C1 (stereo not shown) [Example I-34, (1-Ethane-sulfonyl-piperidin-3-yl)-[6-methyl-3-(5H-pyrrolo[2,3-b]pyrazin-2-yl)-pyridin-2-yl]-amine]
19 | 218 to 220 °C | Cc1ccc(-c2cnc3[nH]ccc3n2)c(NC2CCCN(S(=O)(=O)CC(C)(C)C)C2)n1 (stereo not shown) [Example I-36, [1-(2,2-Dimethyl-propane-1-sulfonyl)-piperidin-3-yl]-[6-methyl-3-(5H-pyrrolo[2,3-b]pyrazin-2-yl)-pyridin-2-yl]-amine]
20 | 215 to 217 °C | CS(=O)(=O)N1CCCC(Nc2ncccc2-c2cnc3[nH]ccc3n2)CC1 (stereo not shown) [Example I-37, (1-Methane-sulfonyl-azepan-4-yl)-[3-(5H-pyrrolo[2,3-b]pyrazin-2-yl)-pyridin-2-yl]-amine]
21 | 209 to 212 °C | O=S(=O)(CC1CC1)N1CCC[C@H](Nc2ncccc2-c2cnc3[nH]ccc3n2)C1 [Example I-38, ((S)-1-Cyclopropyl-methanesulfonyl-piperidin-3-yl)-[3-(5H-pyrrolo[2,3-b]pyrazin-2-yl)-pyridin-2-yl]-amine]
22 | 254 to 259 °C | CC(=O)N1CCCC(Nc2nc(C)ccc2-c2cnc3[nH]cc(Cl)c3n2)C1 (stereo not shown) [Example I-39, 1-{3-[3-(7-Chloro-5H-pyrrolo[2,3-b]pyrazin-2-yl)-6-methyl-pyridin-2-ylamino]-piperidin-1-yl}-ethanone]
